Laboratory results published in patent publication US10568892B2, “Cycloartane tetracyclic triterpenoid compound, preparation method therefor and use thereof” (Hefei Cosource Pharmaceuticals Inc., priority 2016, dated 2020).
Read-outs that look alike come from different tables or passages of the source.

Columns and labels:
[1] = Single-dose toxicity (MTD) in SD rats; format: in vivo; conditions: in vivo, SD rat, read-out: Maximum tolerance dose (MTD)
Source text: The results of the experimental study on the toxicity of Compound 369 administrated through a single intravenous or intragastrical administration in SD rats and KM mice are shown in Table 9.

[2] = system: SD rat; assay: Rat model of heart failure induced by adriamycin; format: in vivo
Method: 2 mg/kg of adriamycin was injected through tail vein to a SD rat for modeling, once a week for 6 weeks. After the modeling was completed, intragastrical administration of Compound 369 at low (3 mg/kg) and high (9 mg/kg) doses was carried out daily for 4 weeks. In the negative control group, the same volume of normal saline was injected through the tail vein once a week for 6 weeks, thereafter the same volume of vehicle was intragastrically administrated daily for 4 weeks. After the end of the administration, the blood pressure was measured by the carotid artery intubation. The left ventricular end diastolic pressure (LVEDP), left ventricular systolic pressure (LVSP), maximal rate of left ventricular systolic pressure (+dp/dt max), and maximal rate of left ventricular diastolic pressure (−dp/dt max) were recorded, and the average values thereof were calculated.
After the hemodynamic indexes were measured, the chest was opened and the heart and lung were quickly taken out. They were immediately placed in the normal saline at 4° C. to wash down the remaining blood. The fats, blood vessels and atrial tissues on the heart were discarded. The heart was sucked dry by the filter paper, and accurately weighed using the electronic balance to record the heart weight. The ratio of heart weight to body weight (HW/BW), i.e., the heart mass index (HMI), was calculated.

[3] = High dose 9 mg/kg intragastrical daily for 4 weeks
[4] = Low dose 3 mg/kg intragastrical daily for 4 weeks

SMILES: CN[C@H]1CC[C@]23C[C@]24CC[C@]2(C)C(C(C)=O)=CC[C@@]2(C)[C@@H]4CC[C@H]3C1(C)C [Compound 369, (3β,5α)-4,4,14-trimethyl-3-(methylamino)-9,19-cyclopregnan-16-en-20-one]
- MTD ([1]; po, single intragastrical administration): 1000 mg/kg
- MTD ([1]; single intravenous injection): 45 mg/kg
- Therapeutic effect on heart failure induced by adriamycin (in words) ([2]; 3 and 9 mg/kg intragastrical daily for 4 weeks): a certain therapeutic effect
- ADBP [2, 3]: 47.0 ± 17.1 mmHg
- ASBP [2, 3]: 84.9 ± 13.3 mmHg
- BW [2, 3]: 380.3 ± 24.8 g
- HW [2, 3]: 1185.0 ± 135.3 mg
- HW/BW [2, 3]: 3.11 mg/g
- LVEDP [2, 3]: −14.2 ± 8.8 mmHg
- LVSP [2, 3]: 97.3 ± 8.9 mmHg
- dp/dtmax [2, 3]: 2402.3 ± 427.6 mmHg/s
- −dp/dt max [2, 3]: −2098.7 ± 345.9 mmHg/s
- ADBP [2, 4]: 40.4 ± 15.3 mmHg
- ASBP [2, 4]: 80.8 ± 17.3 mmHg
- BW [2, 4]: 308.5 ± 34.65 g
- HW [2, 4]: 1007.4 ± 145.3 mg
- HW/BW [2, 4]: 3.27 mg/g
- LVEDP [2, 4]: −12.7 ± 10.0 mmHg
- LVSP [2, 4]: 96.5 ± 9.1 mmHg
- dp/dtmax [2, 4]: 2317.7 ± 715.4 mmHg/s
- −dp/dt max [2, 4]: −2013.5 ± 405.4 mmHg/s
